In US20240041877A1, “DOSAGE REGIME AND METHOD FOR TREATING PULMONARY ARTERIAL HYPERTENSION” (Altavant Sciences GmbH, priority 2019, published 2024):

Key:
Assay type in all cases: in vivo, human
[1] = Part 1 (SAD): urine pharmacokinetics (amount excreted, renal clearance) after a single oral dose of KAR5585
serum 5-HT = experiment: Part 2 (MAD) biomarker: serum 5-HT change from Day 1 predose
Text: (§1) Biomarkers were to be evaluated in Part 2 by measuring concentrations of serotonin (5-hydroxytryptamine [5-HT]) in serum and 5-hydroxyindoleacetic acid (5-HIAA) in plasma and urine. As well, the relationship of biomarkers to PK parameters was to be evaluated.
(§2) The biomarker analysis was to be based on the Biomarker Population (all subjects with evaluable biomarker measurements at baseline [Day 1 predose] and at least one after dosing [Day 7 or Day 14]).
(§3) Biomarker data were to be collected only in Part 2. The following biomarkers were to be analyzed: • Serum 5-HT • Plasma 5-HIAA • Urine 5-HIAA/24 hours (as measured, adjusted, estimated, and per gram creatinine)
(§4) Summary statistics (mean, standard deviation [SD], median, minimum [Min], and maximum [Max]) were to be tabulated for each biomarker, by Cohort, with absolute and relative (%) changes from Day 1 predose.
(§5) The values were to be tabulated with P values testing whether the difference of changes was equal to 0.
(§6) The biomarker portion of the study was conducted in Part 2 MAD using the Biomarker Population. The biomarkers evaluated were serum 5-HT and plasma 5-HIAA, as well as urine 5-HIAA/24 hours (as measured, adjusted, estimated, and per gram creatinine). Urinary 5-HIAA was determined by a validated (21 C.F.R. 58, GLP-compliant) method using liquid chromatographic separation and tandem mass spectrometry detection.

[2] = tested on: urine 5-HIAA (a PD marker of 5-HT synthesis); experiment: Part 2 (MAD) biomarker: urine 5-HIAA/24 hours (measured, adjusted, estimated, per gram creatinine); settings: for Measured urine 5-HIAA: mean difference of % change from Day 1 between KAR5585 and placebo / Measured urine 5-HIAA: mean difference of absolute change from Day 1 between KAR5585 and placebo: no creatinine adjustment
Text: as §1, §2, §3, §4, §5, §6
Urine 5 HIAA/24 hour was analyzed in 4 different manners: as measured in the 24-hour collection and (in order to correct for any collection errors) adjusted for creatinine excretion, estimated by the expected creatinine excretion for the subject (as defined in and expressed per gram creatinine. Results were similar for each of the 4 manners and are presented in this report for measured urine. Tables and figures for adjusted, estimated, and per-gram creatinine results are presented in Section 14.

[3] = Safety and tolerability in healthy adult subjects (SAD and MAD)
[4] = tested on: plasma 5-HIAA (a PD marker of 5-HT synthesis); experiment: Part 2 (MAD) biomarker: plasma 5-HIAA change from Day 1 predose; settings: for mean reduction from Day 1 to Day 14 in plasma 5-HIAA: KAR5585 100 mg BID
Text: as §1, §2, §3
The a priori primary biomarker endpoint was to be the change in plasma 5-HIAA concentration on Day 14 from Day 1.
as §4, §5, §6

[5] = KAR5585 in urine, 1200 mg KAR5585 single oral dose, mean
[6] = all doses pooled, predose Day 7
[7] = all doses pooled, predose Day 14
[8] = KAR5585 400 mg BID, fed, listed as KAR5575

## CCOC(=O)[C@@H]1CC2(CCN(c3cc(O[C@H](c4ccc(Cl)cc4-c4ccccc4)C(F)(F)F)nc(N)n3)CC2)CN1 [KAR5585, (S)-ethyl 8-(2-amino-6-((R)-1-(5-chloro-[1,1′-biphenyl]-2-yl)-2,2,2-trifluoroethoxy)pyrimidin-4-yl)-2,8-diazaspiro[4.5]decane-3-carboxylate]
[1]; [5]
  Amount Excreted (Ae): 0 µg
  Total Excreted (%): 0%
[1]; KAR5585 in urine, 2000 mg KAR5585 single oral dose, mean
  Total Excreted (%): 0.0000751%
[1]; human, urine, po, 400 mg, KAR5585, 400 mg (Fasted) KAR5585 single oral dose, mean
  CL renal: 0.858 mL/min
[1]; single oral KAR5585, all dose levels
  amount excreted (Ae) in urine: less than 0.004 % of the administered dose
Serum 5-HT; 100 mg fasting, predose Day 7
  Serum 5-HT: mean difference of % change from Day 1 between KAR5585 and placebo: −10.97%
  Serum 5-HT: mean difference of absolute change from Day 1 between KAR5585 and placebo: -12.97 ng/mL
Serum 5-HT; 100 mg fasting, predose Day 14
  Serum 5-HT: mean difference of % change from Day 1 between KAR5585 and placebo: −15.92%
  Serum 5-HT: mean difference of absolute change from Day 1 between KAR5585 and placebo: -17.39 ng/mL
Serum 5-HT; 100 mg fed, predose Day 7
  Serum 5-HT: mean difference of % change from Day 1 between KAR5585 and placebo: −11.02%
  Serum 5-HT: mean difference of absolute change from Day 1 between KAR5585 and placebo: -15.75 ng/mL
Serum 5-HT; 100 mg fed, predose Day 14
  Serum 5-HT: mean difference of % change from Day 1 between KAR5585 and placebo: −0.47%
  Serum 5-HT: mean difference of absolute change from Day 1 between KAR5585 and placebo: 5.08 ng/mL
Serum 5-HT; 200 mg fed, predose Day 7
  Serum 5-HT: mean difference of % change from Day 1 between KAR5585 and placebo: −21.64%
  Serum 5-HT: mean difference of absolute change from Day 1 between KAR5585 and placebo: -28.53 ng/mL
Serum 5-HT; 200 mg fed, predose Day 14
  Serum 5-HT: mean difference of % change from Day 1 between KAR5585 and placebo: −11.43%
  Serum 5-HT: mean difference of absolute change from Day 1 between KAR5585 and placebo: -5.79 ng/mL
Serum 5-HT; 400 mg fed, predose Day 7
  Serum 5-HT: mean difference of % change from Day 1 between KAR5585 and placebo: 2.09%
  Serum 5-HT: mean difference of absolute change from Day 1 between KAR5585 and placebo: 16.47 ng/mL
Serum 5-HT; 400 mg fed, predose Day 14
  Serum 5-HT: mean difference of % change from Day 1 between KAR5585 and placebo: −50.02%
  Serum 5-HT: mean difference of absolute change from Day 1 between KAR5585 and placebo: -84.50 ng/mL
Serum 5-HT; Day 7
  mean difference vs placebo of percent changes from Day 1 in serum 5-HT concentration, significance: statistically significant compared to placebo on Day 7 in favor of the 200 mg fed dose group
Serum 5-HT; [6]
  Serum 5-HT: mean difference of % change from Day 1 between KAR5585 and placebo: −10.39%
  Serum 5-HT: mean difference of absolute change from Day 1 between KAR5585 and placebo: -10.19 ng/mL
Serum 5-HT; [7]
  Serum 5-HT: mean difference of % change from Day 1 between KAR5585 and placebo: −20.26%
  Serum 5-HT: mean difference of absolute change from Day 1 between KAR5585 and placebo: -27.14 ng/mL
[2]; 100 mg fasting, Day 7
  Measured urine 5-HIAA: mean difference of % change from Day 1 between KAR5585 and placebo: −31.97%
  Measured urine 5-HIAA: mean difference of absolute change from Day 1 between KAR5585 and placebo: −0.92 mg/24 hours
[2]; 100 mg fasting, Day 14
  Measured urine 5-HIAA: mean difference of % change from Day 1 between KAR5585 and placebo: −17.65%
  Measured urine 5-HIAA: mean difference of absolute change from Day 1 between KAR5585 and placebo: −0.91 mg/24 hours
[2]; 100 mg fed, Day 7
  Measured urine 5-HIAA: mean difference of % change from Day 1 between KAR5585 and placebo: −50.34%
  Measured urine 5-HIAA: mean difference of absolute change from Day 1 between KAR5585 and placebo: −2.09 mg/24 hours
[2]; 100 mg fed, Day 14
  Measured urine 5-HIAA: mean difference of % change from Day 1 between KAR5585 and placebo: −36.03%
  Measured urine 5-HIAA: mean difference of absolute change from Day 1 between KAR5585 and placebo: −1.65 mg/24 hours
[2]; 200 mg fed, Day 7
  Measured urine 5-HIAA: mean difference of % change from Day 1 between KAR5585 and placebo: −26.95%
  Measured urine 5-HIAA: mean difference of absolute change from Day 1 between KAR5585 and placebo: −0.92 mg/24 hours
[2]; 200 mg fed, Day 14
  Measured urine 5-HIAA: mean difference of % change from Day 1 between KAR5585 and placebo: −37.11%
  Measured urine 5-HIAA: mean difference of absolute change from Day 1 between KAR5585 and placebo: −1.58 mg/24 hours
[2]; 400 mg fed, Day 7
  Measured urine 5-HIAA: mean difference of % change from Day 1 between KAR5585 and placebo: −49.41%
  Measured urine 5-HIAA: mean difference of absolute change from Day 1 between KAR5585 and placebo: −1.68 mg/24 hours
[2]; 400 mg fed, Day 14
  Measured urine 5-HIAA: mean difference of % change from Day 1 between KAR5585 and placebo: −54.82%
  Measured urine 5-HIAA: mean difference of absolute change from Day 1 between KAR5585 and placebo: −2.04 mg/24 hours
[2]; Days 7 and 14
  absolute and percent changes from Day 1 in creatinine-normalized urine 5-HIAA vs placebo, significance: statistically significant in favor of KAR5585 versus placebo in all dose groups
[2]; KAR5585 400 mg BID, fed
  mean percent change in measured urine 5-HIAA from Day 1 to Day 7: −39.97%
[2]; [8]
  mean percent change in measured urine 5-HIAA from Day 1 to Day 14: −50.85%
[2]; all doses pooled, Day 7
  Measured urine 5-HIAA: mean difference of % change from Day 1 between KAR5585 and placebo: −40.03%
  Measured urine 5-HIAA: mean difference of absolute change from Day 1 between KAR5585 and placebo: −1.42 mg/24 hours
[2]; all doses pooled, Day 14
  Measured urine 5-HIAA: mean difference of % change from Day 1 between KAR5585 and placebo: −36.39%
  Measured urine 5-HIAA: mean difference of absolute change from Day 1 between KAR5585 and placebo: −1.54 mg/24 hours
[3]; 100 mg (fasting), 100, 200, 400 mg (fed) BID up to 14 days, 36 healthy adult subjects
  safety and tolerability: safe and well-tolerated
[3]; 400 mg single oral dose, fed, 9 healthy adult subjects
  tolerability: well-tolerated
[3]; Part 1 and Part 2, all doses
  tolerability, whole trial: well tolerated throughout the trial
[3]; single ascending oral dose 100-2000 mg, fasting, 54 healthy adult subjects
  safety and tolerability: safe and well-tolerated
[4]; 100 mg fasting, predose Day 7
  Plasma 5-HIAA: mean difference of % change from Day 1 between KAR5585 and placebo: 23.67%
  Plasma 5-HIAA: mean difference of absolute change from Day 1 between KAR5585 and placebo: 0.33 ng/mL
[4]; 100 mg fasting, predose Day 14
  Plasma 5-HIAA: mean difference of % change from Day 1 between KAR5585 and placebo: −48.83%
  Plasma 5-HIAA: mean difference of absolute change from Day 1 between KAR5585 and placebo: -5.92 ng/mL
[4]; 100 mg fed, predose Day 7
  Plasma 5-HIAA: mean difference of % change from Day 1 between KAR5585 and placebo: −48.56%
  Plasma 5-HIAA: mean difference of absolute change from Day 1 between KAR5585 and placebo: -4.56 ng/mL
[4]; 100 mg fed, predose Day 14
  Plasma 5-HIAA: mean difference of % change from Day 1 between KAR5585 and placebo: −52.70%
  Plasma 5-HIAA: mean difference of absolute change from Day 1 between KAR5585 and placebo: -4.50 ng/mL
[4]; 200 mg fed, predose Day 7
  Plasma 5-HIAA: mean difference of % change from Day 1 between KAR5585 and placebo: 12.06%
  Plasma 5-HIAA: mean difference of absolute change from Day 1 between KAR5585 and placebo: 1.22 ng/mL
[4]; 200 mg fed, predose Day 14
  Plasma 5-HIAA: mean difference of % change from Day 1 between KAR5585 and placebo: −52.46%
  Plasma 5-HIAA: mean difference of absolute change from Day 1 between KAR5585 and placebo: -5.25 ng/mL
[4]; 400 mg fed, predose Day 7
  Plasma 5-HIAA: mean difference of % change from Day 1 between KAR5585 and placebo: −76.47%
  Plasma 5-HIAA: mean difference of absolute change from Day 1 between KAR5585 and placebo: -11.44 ng/mL
[4]; 400 mg fed, predose Day 14
  Plasma 5-HIAA: mean difference of % change from Day 1 between KAR5585 and placebo: −73.45%
  Plasma 5-HIAA: mean difference of absolute change from Day 1 between KAR5585 and placebo: -10.69 ng/mL
[4]; fasting
  mean reduction from Day 1 to Day 14 in plasma 5-HIAA: −28.71%
[4]; fed
  mean reduction from Day 1 to Day 14 in plasma 5-HIAA: −32.58%
[4]; KAR5585 400 mg BID, fed
  mean percent change in plasma 5-HIAA from Day 1 to Day 7: −56.67%
[4]; [8]
  mean percent change in plasma 5-HIAA concentration from Day 1 to Day 14: −53.33%
[4]; [6]
  Plasma 5-HIAA: mean difference of % change from Day 1 between KAR5585 and placebo: −22.33%
  Plasma 5-HIAA: mean difference of absolute change from Day 1 between KAR5585 and placebo: -3.61 ng/mL
[4]; [7]
  Plasma 5-HIAA: mean difference of % change from Day 1 between KAR5585 and placebo: −57.11%
  Plasma 5-HIAA: mean difference of absolute change from Day 1 between KAR5585 and placebo: -6.69 ng/mL
[4]; each dose group and all doses combined
  mean difference vs placebo of absolute and percent changes from Day 1 to Day 14 in plasma 5-HIAA, significance: statistically significant in favor of KAR5585 compared to placebo in each dose group and for all doses combined at Day 14
